Results on 29 molecules are retold here after patent publication US10131642B1, “Aldosterone synthase inhibitors” (Boehringer Ingelheim International GmbH, priority 2015, dated 2018).

Experiment [1] addresses cortisol synthase (CYP11B1) (Macaca fascicularis, UniProt A0A2K5ULY1). The experiment is described as follows: Inhibition of cortisol synthesis (cynomolgus adrenal mitochondria, cortisol by mass spectrometry). Format: biochemical, cynomolgus monkey. The following applies: cynomolgus adrenal gland mitochondria, 11-deoxycortisol as substrate, cortisol measured as product; read-out: CYP11B1 Inhibition IC50. Summed up: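 Cynomolgus adrenal mitochondria supplied CYP11B1 (150 units) with 11-deoxycortisol as substrate, plus NADPH; cortisol product measured by mass spectrometry. Activity expressed as % of compound-free NADPH control across compound concentrations; IC50 from 4-parameter logistic fit.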

Experiment [2] addresses T1, aldosterone synthase (CYP11B2) (Macaca fascicularis, UniProt A0A2K5UPL9).
T1 construct: cynomolgus adrenal gland mitochondria as the source of aldosterone synthase (CYP11B2); from tissue; host or cells: cynomolgus monkey adrenal gland mitochondria
T1 sequence (A0A2K5UPL9 1-503): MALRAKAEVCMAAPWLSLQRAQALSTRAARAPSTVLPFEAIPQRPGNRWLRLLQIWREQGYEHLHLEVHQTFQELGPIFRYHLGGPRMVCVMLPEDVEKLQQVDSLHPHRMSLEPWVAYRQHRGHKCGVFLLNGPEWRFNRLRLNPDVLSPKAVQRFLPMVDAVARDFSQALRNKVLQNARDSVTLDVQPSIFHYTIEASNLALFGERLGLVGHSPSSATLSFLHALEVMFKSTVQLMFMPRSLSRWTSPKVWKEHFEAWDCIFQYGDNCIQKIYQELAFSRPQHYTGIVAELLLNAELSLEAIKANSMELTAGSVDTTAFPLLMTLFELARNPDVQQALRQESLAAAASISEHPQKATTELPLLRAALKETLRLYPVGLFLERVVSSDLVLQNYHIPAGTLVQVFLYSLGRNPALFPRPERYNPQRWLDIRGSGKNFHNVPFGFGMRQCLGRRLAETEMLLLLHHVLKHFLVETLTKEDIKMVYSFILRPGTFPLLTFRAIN
Put plainly: Inhibition of aldosterone synthase (cynomolgus adrenal mitochondria, aldosterone by mass spectrometry). It counts as biochemical, cynomolgus monkey. The following applies: cynomolgus adrenal gland mitochondria, 2 μM corticosterone substrate, 90 minutes at 37° C. Summed up:
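Cynomolgus adrenal mitochondria (50 units CYP11B2 activity) with 2 μM corticosterone in 100 mM potassium phosphate pH 7.4, 1% DMSO. Started with 1 mM NADPH, 90 min at 37° C. Aldosterone measured by mass spectrometry; IC50 from 4-parameter logistic fit, NADPH-free reactions as blank.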

In the case of `CC1(C)CC(=O)c2c(noc2Cc2ccc(C(=O)N3CC[C@H](O)C3)cc2)C1` [Cpd 65, 3-[4-((S)-3-Hydroxy-pyrrolidine-1-carbonyl)-benzyl]-6,6-dimethyl-6,7-dihydro-5H-benzo[c]isoxazol-4-one], the figures for the IC50 in experiment [1] and in experiment [2] were 7.6 µM and 0.11 µM, respectively.
The corresponding values for `CC1CC(=O)c2c(noc2Cc2ccc(C(=O)N3CCN(C)C(=O)C3)cc2)C1` (stereo not drawn) [Cpd 66, 6-Methyl-3-[4-(4-methyl-3-oxo-piperazine-l-carbonyl)-benzyl]-6,7-dihydro-5H-benzo[c]isoxazol-4-one] are 5 µM and 0.12 µM.
The like results for `CC(C)N(CCO)C(=O)c1ccc(Cc2onc3c2C(=O)CC(C)(C)C3)cc1` [Cpd 67, 4-(6,6-Dimethyl-4-oxo-4,5,6,7-tetrahydro-benzo[c]isoxazol-3-ylmethyl)-N-(2-hydroxy-ethyl)-N-isopropyl-benzamide] were, in that order, 7.3 µM and 0.12 µM.
The like results for `CC1(C)CC(=O)c2c(noc2Cc2ccc(C(=O)NCCC#N)cc2)C1` [Cpd 68, N-(2-Cyano-ethyl)-4-(6,6-dimethyl-4-oxo-4,5,6,7-tetrahydro-benzo[c]isoxazol-3-ylmethyl)-benzamide] were, in that order, 7.8 µM and 0.16 µM.
Turning to `CC1(C)CC(=O)c2c(noc2Cc2ccc(C(=O)NCC3(O)CC3)cc2)C1` [Cpd 69, 4-(6,6-Dimethyl-4-oxo-4,5,6,7-tetrahydro-benzo[c]isoxazol-3-ylmethyl)-N-(1-hydroxy-cyclopropylmethyl)-benzamide], the values for the IC50 in experiment [1] and in experiment [2] were 13 µM and 0.16 µM, respectively.
With `CC1(C)CC(=O)c2c(noc2Cc2ccc(C(=O)NCC3(CO)CCCC3)cc2)C1` [Cpd 70, 4-(6,6-Dimethyl-4-oxo-4,5,6,7-tetrahydro-benzo[c]isoxazol-3-ylmethyl)-N-(1-hydroxymethyl-cyclopentylmethyl)-benzamide], the figures for the IC50 in experiment [1] and in experiment [2] were 11 µM and 0.16 µM, respectively.
`C[C@H](O)CNC(=O)c1ccc(Cc2onc3c2C(=O)CC(C)(C)C3)cc1` [Cpd 71, 4-(6,6-Dimethyl-4-oxo-4,5,6,7-tetrahydro-benzo[c]isoxazol-3-ylmethyl)-N-((S)-2-hydroxy-propyl)-benzamide]: the IC50 (in general, the midpoint of a concentration-inhibition curve) in experiment [1] was 20 µM; in experiment [2], 0.17 µM.
The corresponding values for `CC1(C)CC(=O)c2c(noc2Cc2ccc(C(=O)N3CCC[C@@H](O)C3)cc2)C1` [Cpd 72, 3-[4-((R)-3-Hydroxy-piperidine-1-carbonyl)-benzyl]-6,6-dimethyl-6,7-dihydro-5H-benzo[c]isoxazol-4-one] are 5.9 µM and 0.18 µM.
The like results for `C[C@@H](O)CNC(=O)c1ccc(Cc2onc3c2C(=O)CC(C)(C)C3)cc1` [Cpd 73, 4-(6,6-Dimethyl-4-oxo-4,5,6,7-tetrahydro-benzo[c]isoxazol-3-ylmethyl)-N-((R)-2-hydroxy-propyl)-benzamide] were, in that order, 23 µM and 0.23 µM.
For `CC1CC(=O)c2c(noc2Cc2ccc(C(N)=O)cc2)C1` (stereo not shown) [Cpd 74, 4-(6-Methyl-4-oxo-4,5,6,7-tetrahydro-benzo[c]isoxazol-3-ylmethyl)-benzamide], the IC50 in experiment [1] is 3 µM; in experiment [2] it was 0.082 µM.
The corresponding values for `CC1(C)CC(=O)c2c(noc2Cc2ccc(C(N)=O)cc2)C1` [Cpd 75, 4-(6,6-Dimethyl-4-oxo-4,5,6,7-tetrahydro-benzo[c]isoxazol-3-ylmethyl)-benzamide] are 15 µM and 0.1 µM.
The corresponding values for `CC(C)C1CC(=O)c2c(noc2Cc2ccc(C(N)=O)cc2)C1` (stereo not shown) [Cpd 76, 4-(6-Isopropyl-4-oxo-4,5,6,7-tetrahydro-benzo[c]isoxazol-3-ylmethyl)-benzamide] are 0.53 µM and 0.025 µM.
The corresponding values for `NC(=O)c1ccc(Cc2onc3c2C(=O)CC2(CCC2)C3)cc1` [Cpd 77, 4-(-6,6-spiro-cyclobutyl-4-oxo-4,5,6,7-tetrahydro-benzo[c]isoxazol-3-ylmethyl)-benzamide] are 0.13 µM and 0.012 µM.
Regarding `CC1(C)CC(=O)c2c(noc2Cc2ccc(OCCCC(N)=O)cc2)C1` [Cpd 78], the half-maximal inhibitory concentration (IC50) in experiment [1] was found to be 3.3 µM; in experiment [2] it was 0.024 µM.
Regarding `CN(C)C(=O)CCCOc1ccc(Cc2onc3c2C(=O)CC(C)(C)C3)cc1` [Cpd 79], the IC50 worked out at 7.8 µM in experiment [1] and 0.023 µM in experiment [2].
The corresponding values for `CNC(=O)CCOc1ccc(Cc2onc3c2C(=O)CC(C)(C)C3)cc1` [Cpd 80, 3-[4-(6,6-Dimethyl-4-oxo-4,5,6,7-tetrahydro-benzo[c]isoxazol-3-ylmethyl)-phenoxy]-N-methyl-propionamide] are 1.8 µM and 0.029 µM.
The corresponding values for `CC1(C)CC(=O)c2c(noc2Cc2ccc(OCCC(N)=O)cc2)C1` [Cpd 81, 3-[4-(6,6-Dimethyl-4-oxo-4,5,6,7-tetrahydro-benzo[c]isoxazol-3-ylmethyl)-phenoxy]-propionamide] are 2.5 µM and 0.035 µM.
The like results for `CN(C)C(=O)CCOc1ccc(Cc2onc3c2C(=O)CC(C)(C)C3)cc1` [Cpd 82, 3-[4-(6,6-Dimethyl-4-oxo-4,5,6,7-tetrahydro-benzo[c]isoxazol-3-ylmethyl)-phenoxy]-N,N-dimethyl-propionamide] were, in that order, 4 µM and 0.044 µM.
Take `CC1(C)CC(=O)c2c(noc2Cc2ccc(OCCC(=O)N3CC[C@@H](O)C3)cc2)C1` [Cpd 83, 3-{4-[3-((R)-3-Hydroxy-pyrrolidin-1-yl)-3-oxo-propoxy]-benzyl}-6,6-dimethyl-6,7-dihydro-5H-benzo[c]isoxazol-4-one]: the IC50 was 2.7 µM in experiment [1] and 0.069 µM in experiment [2].
The like results for `CC1(C)CC(=O)c2c(noc2Cc2ccc(OCCCC(=O)N3CC[C@@H](O)C3)cc2)C1` [Cpd 84, 3-{4-[4-((R)-3-Hydroxy-pyrrolidin-1-yl)-4-oxo-butoxy]-benzyl}-6,6-dimethyl-6,7-dihydro-5H-benzo[c]isoxazol-4-one] were, in that order, 6.9 µM and 0.069 µM.
Turning to `CC1(C)CC(=O)c2c(noc2Cc2ccc(OCCS(C)(=N)=O)cc2)C1` (stereo not shown) [Cpd 85, 3-[4-(2-Methanesulfoximine-ethoxy)-benzyl]-6,6-dimethyl-6,7-dihydro-5H-benzo[c]isoxazol-4-one], the IC50 in experiment [1] worked out at 6.5 µM; in experiment [2], 0.056 µM.
The like results for `CC1(C)Cc2noc(Cc3ccc(C#N)cc3)c2C(=O)O1` [Cpd 87, 4-(6,6-Dimethyl-4-oxo-6,7-dihydro-4H-pyrano[4,3-c]isoxazol-3-ylmethyl)-benzonitrile] were, in that order, 77 µM and 0.22 µM.
The like results for `CC1(C)Cc2noc(Cc3ccc(F)cc3)c2C(=O)O1` [Cpd 88, 3-(4-Fluoro-benzyl)-6,6-dimethyl-6,7-dihydro-pyrano[4,3-c]isoxazol-4-one] were, in that order, 25 µM and 0.19 µM.
The corresponding values for `COc1ccc(Cc2onc3c2C(=O)OC(C)(C)C3)cc1` [Cpd 89, 3-(4-Methoxy-benzyl)-6,6-dimethyl-6,7-dihydro-pyrano[4,3-c]isoxazol-4-one] are 9.8 µM and 0.027 µM.
Take `CC1(C)Cc2noc(Cc3ccc(OCCCS(C)(=O)=O)cc3)c2C(=O)O1` [Cpd 90, 3-[4-(3-Methanesulfonyl-propoxy)-benzyl]-6,6-dimethyl-6,7-dihydro-pyrano[4,3-c]isoxazol-4-one]: the IC50 came to 4.6 µM in experiment [1] and 0.016 µM in experiment [2].
As to `CC1(C)Cc2noc(Cc3ccc(OCCS(C)(=O)=O)cc3)c2C(=O)O1` [Cpd 91, 3-[4-(2-Methanesulfonyl-ethoxy)-benzyl]-6,6-dimethyl-6,7-dihydro-pyrano[4,3-c]isoxazol-4-one], the figures for the IC50 in experiment [1] and in experiment [2] were 21 µM and 0.12 µM, respectively.
The corresponding values for `CC1(C)Cc2noc(CC3CCOCC3)c2C(=O)O1` [Cpd 92, 6,6-Dimethyl-3-(tetrahydro-pyran-4-ylmethyl)-6,7-dihydro-pyrano[4,3-c] isoxazol-4-one] are 69 µM and 0.34 µM.
The like results for `CC1(C)Cc2noc(Cc3ccc(C(=O)N4CC[C@@H](O)C4)cc3)c2C(=O)O1` [Cpd 93, 3-[4-((R)-3-Hydroxy-pyrrolidine-1-carbonyl)-benzyl]-6,6-dimethyl-6,7-dihydro-pyrano[4,3-c]isoxazol-4-one] were, in that order, 2.6 µM and 0.073 µM.
The like results for `CC1(C)Cc2noc(Cc3ccc(C(=O)NCCS(C)(=O)=O)cc3)c2C(=O)O1` [Cpd 94, 4-(6,6-Dimethyl-4-oxo-6,7-dihydro-4H-pyrano[4,3-c]isoxazol-3-ylmethyl)-N-(2-methanesulfonyl-ethyl)-benzamide] were, in that order, 4.3 µM and 0.042 µM.
